Source: paper PMC10569036

Key:
[1] = shake flask on a mixture of 185; loss from the water phase only; LC-Orbitrap peak areas; conditions: room
[2] = shake flask on a mixture of 185; loss from the water phase only; LC-QTOF peak areas; conditions: room

| SMILES | log partition 1-octanol / HPLC water, unbuffered, traces of methanol / DMSO [1] [log10] | log partition butyl acetate / HPLC water, unbuffered, traces of methanol / DMSO [1] [log10] | log partition chloroform / HPLC water, unbuffered, traces of methanol / DMSO [1] [log10] | log partition cyclohexane / HPLC water, unbuffered, traces of methanol / DMSO [1] [log10] | log partition dichloromethane / HPLC water, unbuffered, traces of methanol / DMSO [1] [log10] | log partition n-hexane / HPLC water, unbuffered, traces of methanol / DMSO [1] [log10] | log partition n-octane / HPLC water, unbuffered, traces of methanol / DMSO [1] [log10] | log partition n-undecane / HPLC water, unbuffered, traces of methanol / DMSO [1] [log10] | log partition oleylalcohol / HPLC water, unbuffered, traces of methanol / DMSO [1] [log10] | log partition toluene / HPLC water, unbuffered, traces of methanol / DMSO [1] [log10] | log partition 1-octanol / HPLC water, unbuffered, traces of methanol / DMSO [2] [log10] | log partition butyl acetate / HPLC water, unbuffered, traces of methanol / DMSO [2] [log10] | log partition chloroform / HPLC water, unbuffered, traces of methanol / DMSO [2] [log10] | log partition cyclohexane / HPLC water, unbuffered, traces of methanol / DMSO [2] [log10] | log partition dichloromethane / HPLC water, unbuffered, traces of methanol / DMSO [2] [log10] | log partition n-hexane / HPLC water, unbuffered, traces of methanol / DMSO [2] [log10] | log partition n-octane / HPLC water, unbuffered, traces of methanol / DMSO [2] [log10] | log partition n-undecane / HPLC water, unbuffered, traces of methanol / DMSO [2] [log10] | log partition oleylalcohol / HPLC water, unbuffered, traces of methanol / DMSO [2] [log10] | log partition toluene / HPLC water, unbuffered, traces of methanol / DMSO [2] [log10] |
| --- | --- | --- | --- | --- | --- | --- | --- | --- | --- | --- | --- | --- | --- | --- | --- | --- | --- | --- | --- | --- |
| Cc1cc(C)nc(NS(=O)(=O)c2ccc(N)cc2)n1 | -0.03015 | -0.1328 | 0.1061 | -0.9043 | -0.3816 | -0.631 | -0.6854 | -0.8904 | -0.3433 | -1.077 | -0.08641 | -0.1162 | -0.2658 | -0.9757 | -0.5411 | -1.336 | -1.319 | -1.455 | -0.5276 | -1.085 |
| CCOc1ccc2[nH]cc(C(=O)NCc3ccccc3)c(=O)c2n1 | 3.526 | 2.502 | 1.196 | -1.221 | 1.153 | -1.633 | -1.139 | -1.372 | 2.478 | -0.2525 | 2.233 | 1.386 | 2.411 | -1.713 | 1.249 | -1.238 | -1.123 | -1.345 | 2.032 | -0.4984 |
| CC(C)C1(C)N=C(c2nc3ccccc3cc2C(=O)O)NC1=O (centres unmarked) | 0.3193 | -0.573 | -0.8011 | -1.428 | -0.4847 | -1.375 | -1.474 | -1.445 | -0.2597 | -1.419 | -0.1003 | 0.3218 | -1.426 | -1.269 | -0.4187 | -0.9732 | -1.466 | -1.153 | 0.635 | -0.5162 |
| NC(=O)Nc1ccc(Cl)cc1 | 0.591 | 0.6709 | -0.4936 |  | -0.3897 |  |  |  | 0.6552 | -1.194 | 1.214 | 0.7995 | -0.1363 |  | -0.2421 |  |  |  | 1.051 | -0.9053 |
| CO/N=C(/C1=NOCCO1)c1ccccc1Oc1ncnc(Oc2ccccc2Cl)c1F | 3.061 | 2.459 | 1.134 | 1.413 | 1.68 | 1.053 | 1.336 | 1.233 | 1.908 | 1.832 | 2.317 | 2.442 | 2.253 | 1.674 | 2.488 | 1.734 | 1.431 | 1.557 | 2.253 | 2.389 |
| CO/C=C(/C(=O)OC)c1ccccc1Oc1cc(Oc2ccccc2C#N)ncn1 |  |  |  |  |  |  |  |  |  |  | 2.62 | 3.136 | 2.817 | 1.291 | 2.944 | 0.8262 | 0.8047 | 0.5559 | 2.323 | 2.329 |
| O=S(=O)(O)C(F)(F)F |  |  |  |  |  |  |  |  |  |  | -1.49 | -1.234 | 1.635 | -0.7044 | 1.509 | -0.8208 | -0.9229 | -0.955 | -1.56 | -0.8212 |
| Oc1c(Cl)cc(Cl)c(Cl)c1Cc1c(O)c(Cl)cc(Cl)c1Cl |  |  |  |  |  |  |  |  |  |  | 3.536 | 2.622 | 2.343 | 2.027 | 1.996 | 1.5 | 1.932 | 2.251 | 2.088 | 2.305 |
